These are literature values, as cited in patent US20220346436A1, “ORALLY DISSOLVING FILMS” (NICOVENTURES TRADING LIMITED, priority 2021, published 2022).

For data set [1] the following is noted: water / aqueous environment (e.g., saliva).
The conditions of data set [2]: when isolated; isomerises to trans-bixin.

On to `CC(/C=C/C=C(C)/C=C/C(=O)O)=C\C=C\C=C(C)\C=C\C=C(C)\C=C\C(=O)O` (stereo in doubt) [norbixin, (2E,4E,6E,8E,10E,12E,14E,16E,18E)-4,8,13,17-tetramethylicosa-2,4,6,8,10,12,14,16,18-nonaenedioic acid], for which the solubility result in data set [1] was “water soluble”.

`C=C(C)[C@@H]1CCC(C)=C[C@H]1c1c(O)cc(CCCCC)cc1O` [CBD, cannabidiol, reference compound]: the logP value entry is given as “about 6.5”. In addition, in data set [1], the solubility entry is reported as “insoluble in an aqueous environment”.

For `COC(=O)/C=C/C(C)=C\C=C\C(C)=C\C=C\C=C(C)\C=C\C=C(C)\C=C\C(=O)O` [bixin, (2E,4E,6E,8E,10E,12E,14E,16Z,18E)-20-methoxy-4,8,13,17-tetramethyl-20-oxoicosa-2,4,6,8,10,12,14,16,18-nonaenoic acid], in data set [1], the solubility result is given as “insoluble in water”. For the same compound, in data set [2], the chemical stability result is listed as “chemically unstable when isolated”.
